Structures are written as SMILES. Counter-ions that a name gives are not always drawn.

This note sets out measurements from patent US9849489B2, “Passive sampling devices” (priority 2015, dated 2017).

Data set [1] can be described thus: stability of 17 infused compounds in stored wristbands. The following applies: for Overall RSD from entire study to 28 days: RSD across all time and temperature samples (−20° C., 4° C., 30° C.); for Beginning RSD from starting time point: RSD of concentration (ng/mL), extraction immediately following infusion. In kind it is physicochemical. Here is the method:
In another example, the stability of wristbands infused with 17 compounds of varied physiochemistry was studied for various combinations of times and temperatures. […] Twelve wristbands underwent solvent extraction and analysis immediately following infusion. The remaining wristbands were divided into three groups and one group of wristbands was stored at each of −20° C., 4° C., and 30° C. Four wristbands from each temperature group underwent solvent extraction and analysis after 7 days and after 28 days. Four wristbands from the −20° C. and 4° C. temperature groups underwent solvent extraction and analysis after 14 days. This stability study is ongoing and will span 2 years.

The nature of data set [2]: stability of PAH-infused wristbands stored in PTFE bags at three temperatures. In kind it is physicochemical. The following applies: −20° C., 23° C. or 35° C., 72 hours. On the procedure:
Studies were carried out to examine whether PAHs would degrade after being sequestered by a wristband or whether field or handling conditions would influence exposure concentrations determined during wristband analysis.
The PAH-infused wristbands placed in PTFE storage bags were exposed to a temperature of −20° C. (in a walk-in freezer), 23° C. (ambient temperature), or 35° C. (in a drying oven) for 72 hours. Temperatures in each environment were monitored every 30 minutes using a temperature logger. Following the 72-hour exposure, the PAHs were extracted from the wristbands using solvent extraction and analyzed as described above.
In FIG. 14, the ratio of each analyte response divided by an internal standard response (for perylene-d12) are shown, because an error with surrogate recovery artificially inflated the variance across the three temperature exposures. […] The largest change among all PAH analytes was still less than 13% (fluorene-d10, freezer and ambient temperatures), so any changes in PAH concentrations were deemed negligible. Furthermore, potential changes in concentration would have been conserved since transportation was similar among wristbands within each temperature group. […] The standard deviations in FIG. 14 are the result of three replicates.

Regarding `[2H]c1c([2H])c([2H])c(-c2c(Cl)c(Cl)cc(Cl)c2Cl)c([2H])c1[2H]` [PCB-65-d5, reference compound], in data set [1], the “Overall RSD from entire study to 28 days” value turned out to be 37% and the “Beginning RSD from starting time point” value was determined as 35%.
On the same counts, the results for `[2H]c1c([2H])c([2H])c2c(c1[2H])C(=O)c1c([2H])c([2H])c([2H])c([2H])c1C2=O` [Anthraquinone-d8, reference compound] are 14% and 8%.
Turning to `[2H]c1c([2H])c(-c2cc(Cl)c(Cl)c(Cl)c2Cl)c([2H])c(Cl)c1Cl` [PCB-156-d3, reference compound], in data set [1], the “Overall RSD from entire study to 28 days” value stood at 50% and the “Beginning RSD from starting time point” value came to 53%.
Regarding `O=P(OC(CCl)CCl)(OC(CCl)CCl)OC(CCl)CCl` [TCDPP, 1,3-dichloro-2-propyl phosphate], in data set [1], the “Overall RSD from entire study to 28 days” value was determined as 14% and the “Beginning RSD from starting time point” value came to 10%.
For `O=P(Oc1ccccc1)(Oc1ccccc1)Oc1ccccc1` [triphenyl phosphate], in data set [1], the “Overall RSD from entire study to 28 days” value was determined as 12% and the “Beginning RSD from starting time point” value stood at 6%.
On the same counts, the results for `Brc1ccc(Oc2cc(Br)c(Br)cc2Br)c(Br)c1` [PBDE 99] are 43% and 46%.
`Brc1ccc(Oc2ccc(Br)cc2Br)c(Br)c1` [PBDE 47]: in data set [1], the “Overall RSD from entire study to 28 days” value was determined as 37% and the “Beginning RSD from starting time point” value came to 37%.
For the compound `CCOP(=S)(OCC)Oc1nc(Cl)c(Cl)cc1Cl` [chlorpyrifos], in data set [1], the “Overall RSD from entire study to 28 days” value is listed as 24% and the “Beginning RSD from starting time point” value is on record as 19%.
On the same counts, the results for `Brc1cc(Br)c(Oc2cc(Br)c(Br)cc2Br)c(Br)c1` [PBDE 154] are 51% and 53%.
Take `O=C1C2CC3C1C1(Cl)C(Cl)C4(Cl)C2C3C1(Cl)C4(Cl)Cl` (stereo not drawn) [endrin Ketone]: in data set [1], the “Overall RSD from entire study to 28 days” value came out at 8% and the “Beginning RSD from starting time point” value is recorded as 4%.
On the same counts, the results for `CCCSP(=O)(OCC)SCCC` [prophos/ethoprophos] are 11% and 8%.
Consider `[2H]c1c([2H])c([2H])c2c(c1[2H])-c1c([2H])c([2H])c([2H])c([2H])c1C2([2H])[2H]` [fluorene-d10, reference compound], for which, in data set [1], the “Overall RSD from entire study to 28 days” value was 16% and the “Beginning RSD from starting time point” value is given as 14%. For the same compound, the “largest change in analyte response ratio between temperature groups” value in data set [2] is recorded as “less than 13%”.
On to `[2H]c1c([2H])c([2H])c(-c2c(Cl)c(Cl)c(Cl)c(Cl)c2Cl)c([2H])c1[2H]` [PCB-116-d5, reference compound], for which, in data set [1], the “Overall RSD from entire study to 28 days” value is reported as 44% and the “Beginning RSD from starting time point” value is on record as 45%.
On the same counts, the results for `O=S1(=O)OCC2C(CO1)C1(Cl)C(Cl)=C(Cl)C2(Cl)C1(Cl)Cl` (stereo not drawn) [endosulfan sulfate] are 10% and 8%.
On the same counts, the results for `[2H]c1c([2H])c2c([2H])c([2H])c3c([2H])c([2H])c([2H])c4c([2H])c([2H])c(c1[2H])c2c34` [pyrene-d10, reference compound] are 32% and 27%.
Regarding `[2H]c1c([2H])c(Oc2ccc(Cl)cc2O)c(Cl)c([2H])c1Cl` [triclosan-d3, reference compound], in data set [1], the “Overall RSD from entire study to 28 days” value was determined as 11% and the “Beginning RSD from starting time point” value turned out to be 9%.
